According to US8741906B2 (priority 2011, dated 2014):
Read-outs that look alike come from different tables or passages of the source.

Assays:
[1] = target: T1, human CB1 receptors (Homo sapiens, UniProt P21554); test: functional cAMP assay, human CB1; format: cell-based
T1 construct: expressed in transfected cells; host or cells: CHO cells
Summary of the method: (§1)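 CHO-hCB1/hCB2 cells, KRB + 1 mM IBMX preincubation 30 min 30 °C; cpd 30 min 30 °C; lysis + TR-FRET cAMP detection, 2 h RT; cAMP from std curve; EC50.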

[2] = target: T2, human CB2 receptors (Homo sapiens, UniProt P34972); test: functional cAMP assay, human CB2; format: cell-based
T2 construct: expressed in transfected cells; host or cells: CHO cells
T2 sequence (P34972 whole entry): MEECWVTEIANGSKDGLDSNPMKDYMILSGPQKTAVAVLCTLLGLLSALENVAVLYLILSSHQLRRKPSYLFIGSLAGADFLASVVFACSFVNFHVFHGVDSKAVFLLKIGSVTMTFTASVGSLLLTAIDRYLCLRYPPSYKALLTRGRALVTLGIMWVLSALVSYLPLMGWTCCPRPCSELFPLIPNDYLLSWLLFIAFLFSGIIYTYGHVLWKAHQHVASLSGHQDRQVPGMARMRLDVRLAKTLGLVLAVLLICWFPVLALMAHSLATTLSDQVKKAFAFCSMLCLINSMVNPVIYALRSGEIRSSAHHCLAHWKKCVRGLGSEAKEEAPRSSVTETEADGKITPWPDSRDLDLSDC
Summary of the method: as §1

[3] = CHO cells expressing human CB2, cAMP, read-out: human CB2 EC50
[4] = CHO cells expressing human CB1, cAMP, read-out: human CB1 EC50

T1 sequence (P21554 whole entry): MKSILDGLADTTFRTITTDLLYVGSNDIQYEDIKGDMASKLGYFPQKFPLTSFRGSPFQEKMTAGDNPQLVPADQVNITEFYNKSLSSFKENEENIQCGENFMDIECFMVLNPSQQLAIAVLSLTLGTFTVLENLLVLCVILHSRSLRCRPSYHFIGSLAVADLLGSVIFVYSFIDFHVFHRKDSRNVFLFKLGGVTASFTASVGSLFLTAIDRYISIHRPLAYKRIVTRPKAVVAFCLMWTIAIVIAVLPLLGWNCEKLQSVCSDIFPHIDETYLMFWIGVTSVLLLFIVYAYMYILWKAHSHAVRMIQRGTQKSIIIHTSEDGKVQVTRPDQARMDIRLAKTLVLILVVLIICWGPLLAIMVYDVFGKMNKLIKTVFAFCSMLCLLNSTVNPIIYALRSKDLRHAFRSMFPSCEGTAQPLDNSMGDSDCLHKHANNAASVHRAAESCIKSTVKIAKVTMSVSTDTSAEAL

SMILES	EC50 [1] [µM]	EC50 [2, 3] [nM]	EC50 [1, 4] [µM]	EC50 [2] [nM]
CC(C)(C)c1nc(N2CCC(c3ccccc3)C2)c2nnn(Cc3ccccc3Cl)c2n1 (stereo not shown) [Example 195, 5-tert-Butyl-3-(2-chloro-benzyl)-7-(3-phenyl-pyrrolidin-1-yl)-3H-[1,2,3]triazolo[4,5-d]pyrimidine]	> 10	467	–	–
CCN(C(C)=O)C1CCN(c2nc(C(C)(C)C)nc3c2nnn3Cc2ccccc2Cl)C1 (stereo not shown) [Example 196, N-{1-[5-tert-Butyl-3-(2-chloro-benzyl)-3H-[1,2,3]triazolo[4,5-d]pyrimidin-7-yl]-pyrrolidin-3-yl}-N-ethyl-acetamide]	> 10	119	–	–
COC(=O)C1CN(c2nc(C(C)(C)C)nc3c2nnn3Cc2ccccc2Cl)C1 [Example 197, 1-[5-tert-Butyl-3-(2-chloro-benzyl)-3H-[1,2,3]triazolo[4,5-d]pyrimidin-7-yl]-azetidine-3-carboxylic acid methyl ester]	> 10	257	–	–
CC1CCN(c2nc(C(C)(C)C)nc3c2nnn3Cc2ccccc2Cl)C1 (stereo not shown) [Example 198, 5-tert-Butyl-3-(2-chloro-benzyl)-7-(3-methyl-pyrrolidin-1-yl)-3H-[1,2,3]triazolo[4,5-d]pyrimidine]	–	12.8	1.71	–
CC(C)(C)c1nc(N2CCC[C@H]2CN)c2nnn(Cc3ccccc3Cl)c2n1 [Example 199, C-{(S)-1-[5-tert-Butyl-3-(2-chloro-benzyl)-3H-[1,2,3]triazolo[4,5-d]pyrimidin-7-yl]-pyrrolidin-2-yl}-methylamine]	> 10	183	–	–
Cn1ccc(C2CCCN2c2nc(C(C)(C)C)nc3c2nnn3Cc2ccccc2Cl)n1 (stereo not shown) [Example 200, 5-tert-Butyl-3-(2-chloro-benzyl)-7-[2-(1-methyl-1H-pyrazol-3-yl)-pyrrolidin-1-yl]-3H-[1,2,3]triazolo[4,5-d]pyrimidine]	> 10	178	–	–
Cn1nccc1C1CCCN1c1nc(C(C)(C)C)nc2c1nnn2Cc1ccccc1Cl (stereo not shown) [Example 201, 5-tert-Butyl-3-(2-chloro-benzyl)-7-[2-(2-methyl-2H-pyrazol-3-yl)-pyrrolidin-1-yl]-3H-[1,2,3]triazolo[4,5-d]pyrimidine]	–	65.7	> 10	–
Cc1cc(C2CCCN2c2nc(C(C)(C)C)nc3c2nnn3Cc2ccccc2Cl)on1 (stereo not shown) [Example 202, 5-tert-Butyl-3-(2-chloro-benzyl)-7-[2-(3-methyl-isoxazol-5-yl)-pyrrolidin-1-yl]-3H-[1,2,3]triazolo[4,5-d]pyrimidine]	–	86.8	> 10	–
Cc1noc(C2CCCN2c2nc(C(C)(C)C)nc3c2nnn3Cc2ccccc2Cl)n1 (stereo not shown) [Example 203, 5-tert-Butyl-3-(2-chloro-benzyl)-7-[2-(3-methyl-[1,2,4]oxadiazol-5-yl)-pyrrolidin-1-yl]-3H-[1,2,3]triazolo[4,5-d]pyrimidine]	–	53.1	> 10	–
CC(C)(C)c1nc(N2CCC(O)C2)c2nnn(Cc3ccccc3Cl)c2n1 (stereo not shown) [Example 204, 1-[5-tert-Butyl-3-(2-chloro-benzyl)-3H-[1,2,3]triazolo[4,5-d]pyrimidin-7-yl]-pyrrolidin-3-ol]	–	0.5	> 10	–
CC(C)(C)c1nc(OC2CCC2)c2nnn(Cc3ccccc3Cl)c2n1 [Example 205, 5-tert-Butyl-3-(2-chloro-benzyl)-7-cyclobutoxy-3H-[1,2,3]triazolo[4,5-d]pyrimidine]	–	12.2	> 10	–
CC(C)(C)c1nc(OC2COC2)c2nnn(Cc3ccccc3Cl)c2n1 [Example 206, 5-tert-Butyl-3-(2-chloro-benzyl)-7-(oxetan-3-yloxy)-3H-[1,2,3]triazolo[4,5-d]pyrimidine]	–	11.3	> 10	–
COc1nc(C(C)(C)C)nc2c1nnn2Cc1ccccc1Cl [Example 207, 5-tert-Butyl-3-(2-chloro-benzyl)-7-methoxy-3H-[1,2,3]triazolo[4,5-d]pyrimidine]	–	68	> 10	–
CCOc1nc(C(C)(C)C)nc2c1nnn2Cc1ccccc1Cl [Example 208, 5-tert-Butyl-3-(2-chloro-benzyl)-7-ethoxy-3H-[1,2,3]triazolo[4,5-d]pyrimidine]	–	9.2	> 10	–
CC(C)Oc1nc(C(C)(C)C)nc2c1nnn2Cc1ccccc1Cl [Example 209, 5-tert-Butyl-3-(2-chloro-benzyl)-7-isopropoxy-3H-[1,2,3]triazolo[4,5-d]pyrimidine]	–	16	> 10	–
CC(C)(C)c1nc(OCC2CC2)c2nnn(Cc3ccccc3Cl)c2n1 [Example 210, 5-tert-Butyl-3-(2-chloro-benzyl)-7-cyclopropylmethoxy-3H-[1,2,3]triazolo[4,5-d]pyrimidine]	–	16.7	> 10	–

SMILES	EC50 [1] [µM]	EC50 [2, 3] [nM]	EC50 [1, 4] [µM]	EC50 [2] [nM]
CC(Oc1nc(C(C)(C)C)nc2c1nnn2Cc1ccccc1Cl)C1CC1 (stereo not shown) [Example 211, 5-tert-Butyl-3-(2-chloro-benzyl)-7-(1-cyclopropyl-ethoxy)-3H-[1,2,3]triazolo[4,5-d]pyrimidine]	–	98.6	> 10	–
CC(C)(C)c1nc(OC2CCCC2)c2nnn(Cc3ccccc3Cl)c2n1 [Example 212, 5-tert-Butyl-3-(2-chloro-benzyl)-7-cyclopentyloxy-3H-[1,2,3]triazolo[4,5-d]pyrimidine]	–	22	> 10	–
CC(C)(C)COc1nc(C(C)(C)C)nc2c1nnn2Cc1ccccc1Cl [Example 213, 5-tert-Butyl-3-(2-chloro-benzyl)-7-(2,2-dimethyl-propoxy)-3H-[1,2,3]triazolo[4,5-d]pyrimidine]	–	59.6	> 10	–
CC(Oc1nc(C(C)(C)C)nc2c1nnn2Cc1ccccc1Cl)C(F)(F)F (stereo not shown) [Example 214, 5-tert-Butyl-3-(2-chloro-benzyl)-7-(2,2,2-trifluoro-1-methyl-ethoxy)-3H-[1,2,3]triazolo[4,5-d]pyrimidine]	–	9.4	> 10	–
C[C@H](Oc1nc(C(C)(C)C)nc2c1nnn2Cc1ccccc1Cl)C(F)(F)F [Example 215, 5-tert-Butyl-3-(2-chloro-benzyl)-7-((S)-2,2,2-trifluoro-1-methyl-ethoxy)-3H-[1,2,3]triazolo[4,5-d]pyrimidine]	–	24.7	> 10	–
C[C@@H](Oc1nc(C(C)(C)C)nc2c1nnn2Cc1ccccc1Cl)C(F)(F)F [Example 216, 5-tert-Butyl-3-(2-chloro-benzyl)-7-((R)-2,2,2-trifluoro-1-methyl-ethoxy)-3H-[1,2,3]triazolo[4,5-d]pyrimidine]	–	10.4	> 10	–
CC(C)(C)c1nc(N2CC[C@H](O)C2)c2nnn(Cc3ccccc3)c2n1 [Example 217, (3S)-1-(3-benzyl-5-tert-butyl-triazolo[4,5-d]pyrimidin-7-yl)pyrrolidin-3-ol]	–	3.3	> 10	–
CC(C)(C)c1nc(N2CCC(O)C2)c2nnn(Cc3ccccc3Cl)c2n1 (stereo not shown) [Example 218, 1-(5-tert-butyl-3-(2-chlorobenzyl)-3H-[1,2,3]triazolo[4,5-d]pyrimidin-7-yl)pyrrolidin-3-ol]	–	0.5	> 10	–
Cn1nnnc1Cn1nnc2c(N3CC[C@@H](O)C3)nc(C(C)(C)C)nc21 [Example 219, (R)-1-(5-tert-butyl-3-((1-methyl-1H-tetrazol-5-yl)methyl)-3H-[1,2,3]triazolo[4,5-d]pyrimidin-7-yl)pyrrolidin-3-ol]	> 10	–	–	32.9
Cn1nnnc1Cn1nnc2c(N3CCC(O)C3)nc(C(C)(C)C)nc21 (stereo not shown) [Example 220, 1-(5-tert-butyl-3-((1-methyl-1H-tetrazol-5-yl)methyl)-3H-[1,2,3]triazolo[4,5-d]pyrimidin-7-yl)pyrrolidin-3-ol]	> 10	–	–	4.7
CC(C)(C)c1nc(N2CC[C@](C)(O)C2)c2nnn(Cc3ccccc3Cl)c2n1 [Example 221-a, (S)-1-(5-tert-butyl-3-(2-chlorobenzyl)-3H-[1,2,3]triazolo[4,5-d]pyrimidin-7-yl)-3-methylpyrrolidin-3-ol]	–	3	1.8	–
CC(C)(C)c1nc(N2CC[C@@](C)(O)C2)c2nnn(Cc3ccccc3Cl)c2n1 [Example 221-b, (R)-1-(5-tert-butyl-3-(2-chlorobenzyl)-3H-[1,2,3]triazolo[4,5-d]pyrimidin-7-yl)-3-methylpyrrolidin-3-ol]	–	7	0.853	–
CC(C)(C)c1nc(N2CC[C@](C)(O)C2)c2nnn(Cc3ccccc3C(F)(F)F)c2n1 [Example 222-a, (S)-1-(5-tert-butyl-3-(2-(trifluoromethyl)benzyl)-3H-[1,2,3]triazolo[4,5-d]pyrimidin-7-yl)-3-methylpyrrolidin-3-ol]	–	0.8	0.894	–
CC(C)(C)c1nc(N2CC[C@@](C)(O)C2)c2nnn(Cc3ccccc3C(F)(F)F)c2n1 [Example 222-b, (R)-1-(5-tert-butyl-3-(2-(trifluoromethyl)benzyl)-3H-[1,2,3]triazolo[4,5-d]pyrimidin-7-yl)-3-methylpyrrolidin-3-ol]	–	5.2	> 10	–
CC(C)(C)c1nc(N2CC[C@](C)(O)C2)c2nnn(Cc3ccccc3S(C)(=O)=O)c2n1 [Example 223-a, (S)-1-(5-tert-butyl-3-(2-(methylsulfonyl)benzyl)-3H-[1,2,3]triazolo[4,5-d]pyrimidin-7-yl)-3-methylpyrrolidin-3-ol]	–	0.4	0.241	–
CC(C)(C)c1nc(N2CC[C@@](C)(O)C2)c2nnn(Cc3ccccc3S(C)(=O)=O)c2n1 [Example 223-b, (R)-1-(5-tert-butyl-3-(2-(methylsulfonyl)benzyl)-3H-[1,2,3]triazolo[4,5-d]pyrimidin-7-yl)-3-methylpyrrolidin-3-ol]	–	3	0.246	–
